In assay [1] the test system is B. cereus ATCC 11778. In words: NCCLS broth microdilution MIC, B. cereus. The assay is classed as cell-based, Bacillus cereus. The conditions noted are these: organism A = B. cereus ATCC 11778. An excerpt:
(§1) Compounds according to this invention were screened for their in vitro activities against selected species of bacteria and fungi. […]
(In general: Dilution methods test growth across graded concentrations, often in twofold steps.)

The test system of assay [2] is S. aureus ATCC 13709. The experiment in a line: NCCLS broth microdilution MIC, S. aureus (MSSA). Type of assay: cell-based, Staphylococcus aureus. The conditions noted are these: organism E = S. aureus ATCC 13709 (MSSA).
From the text: as §1

The subject of assay [3] is E. faecalis ATCC 29212. The experiment in a line: NCCLS broth microdilution MIC, E. faecalis. The conditions noted are these: organism C = E. faecalis ATCC 29212. The assay is classed as cell-based.
From the text: as §1

Assay [4] has as its system E. faecium ATCC 51559. The experiment in a line: NCCLS broth microdilution MIC, E. faecium (VRE). Type of assay: cell-based, Enterococcus faecium. To be noted: organism D = E. faecium ATCC 51559 (VRE).
From the text: as §1

Assay [5] concerns S. pneumoniae ATCC 49619. In words: NCCLS broth microdilution MIC, S. pneumoniae ATCC 49619. Type of assay: cell-based, Streptococcus pneumoniae. To be noted: organism H = S. pneumoniae ATCC 49619.
From the text: as §1

The subject of assay [6] is C. albicans ATCC 38247. The experiment in a line: Antifungal MIC, C. albicans. The assay is classed as cell-based, Candida albicans. The conditions noted are these: organism B = C. albicans ATCC 38247.
From the text: as §1

The subject of assay [7] is S. pneumoniae ATCC 51422. The experiment in a line: NCCLS broth microdilution MIC, S. pneumoniae (PRSP). The conditions noted are these: organism I = S. pneumoniae ATCC 51422 (PRSP). The assay is classed as cell-based, Streptococcus pneumoniae.
From the text: as §1

Assay [8] has as its system S. epidermidis ATCC 12228. The experiment in a line: NCCLS broth microdilution MIC, S. epidermidis. Type of assay: cell-based, Staphylococcus epidermidis. The conditions noted are these: organism G = S. epidermidis ATCC 12228.
From the text: as §1

For assay [9], the system named is S. aureus ATCC 27660. In words: NCCLS broth microdilution MIC, S. aureus (MRSA). The conditions noted are these: organism F = S. aureus ATCC 27660 (MRSA). Type of assay: cell-based, Staphylococcus aureus.
From the text: as §1

A value given as a limit tells only on which side of the number the result lay.

Consider `Cn1cc(NC(=O)c2cc(NC(=O)c3cc(NC(=O)c4cc5ccccc5cn4)cn3C)c[nH]2)cc1C(=O)NCCc1ccccn1` [Ib-93], for which the “Minimum Inhibitory Concentration (MIC)” value in assay [1] is “+++ (+++ = MIC ≦ 4)”; in assay [2] it was “+++ (+++ = MIC ≦ 4)”; in assay [3] it was “+++ (+++ = MIC ≦ 4)”; in assay [4], “+++ (+++ = MIC ≦ 4)”; in assay [5] it was “+++ (+++ = MIC ≦ 4)”; in [6], above 32 µg/mL. Further, the “Minimum Inhibitory Concentration (MIC)” value in [7], in [8] and in assay [9] was “+++ (+++ = MIC ≦ 4)” each time.

On to `Cn1cc(NC(=O)c2cc(NC(=O)c3cc(NC(=O)c4cc5ccccc5cn4)cn3C)c[nH]2)cc1C(=O)NCCN1CCSCC1` [Ib-87], for which the “Minimum Inhibitory Concentration (MIC)” value is “+++ (+++ = MIC ≦ 4)” in assay [1]; “+++ (+++ = MIC ≦ 4)” in assay [2]; “+++ (+++ = MIC ≦ 4)” in assay [3]; “+++ (+++ = MIC ≦ 4)” in assay [4]; “+++ (+++ = MIC ≦ 4)” in assay [5]; above 32 µg/mL in [6]. Also, the “Minimum Inhibitory Concentration (MIC)” value in assay [7], in assay [8] and in assay [9] was “+++ (+++ = MIC ≦ 4)” each time.

Turning to `COCCOCCOCCn1cc(NC(=O)c2cc(NC(=O)c3cc4ccccc4cn3)cn2C)cc1C(=O)Nc1cc(C(=O)NCCN2CCOCC2)n(C)c1` [Ib-83], the “Minimum Inhibitory Concentration (MIC)” value in [1] is “+++ (+++ = MIC ≦ 4)”; in assay [2], “+++ (+++ = MIC ≦ 4)”; in [3], “+++ (+++ = MIC ≦ 4)”; in [4], “+++ (+++ = MIC ≦ 4)”; in assay [5] it was “+++ (+++ = MIC ≦ 4)”; in assay [6], above 32 µg/mL. For the same molecule, the “Minimum Inhibitory Concentration (MIC)” value in [7], in [8] and in assay [9] was “+++ (+++ = MIC ≦ 4)” throughout.

With `Cn1cc(NC(=O)c2ccc(NC(=O)c3cc(NC(=O)c4cc5ccccc5cn4)cn3C)cc2)cc1C(=O)NCCc1ccccn1` [Ic-12], the “Minimum Inhibitory Concentration (MIC)” value in [1] was above 32 µg/mL; in [2], “+++ (+++ = MIC ≦ 4)”; in assay [3] it was “+++ (+++ = MIC ≦ 4)”; in assay [4], “+++ (+++ = MIC ≦ 4)”; in assay [5], “+++ (+++ = MIC ≦ 4)”; in [6] it was above 32 µg/mL. Also, the “Minimum Inhibitory Concentration (MIC)” value in assay [7], in assay [8] and in assay [9] was “+++ (+++ = MIC ≦ 4)” each time.

Regarding `Cn1cc(NC(=O)c2ccc(NC(=O)c3cc(NC(=O)c4cc5ccccc5cn4)cn3C)cc2)cc1C(=O)NCCN1CCCCC1` [Ic-13], the “Minimum Inhibitory Concentration (MIC)” value was “+++ (+++ = MIC ≦ 4)” in assay [1]; “+++ (+++ = MIC ≦ 4)” in assay [2]; “+++ (+++ = MIC ≦ 4)” in assay [3]; “+++ (+++ = MIC ≦ 4)” in [4]; “+++ (+++ = MIC ≦ 4)” in [5]; above 32 µg/mL in [6]. Also, the “Minimum Inhibitory Concentration (MIC)” value in assay [7], in assay [8] and in assay [9] was “+++ (+++ = MIC ≦ 4)” each time.

Turning to `Cn1cc(NC(=O)c2cc(NC(=O)c3cc(NC(=O)c4cc5ccccc5cn4)cs3)cn2C)cc1C(=O)NCCN1CCOCC1` [Ib-51], the “Minimum Inhibitory Concentration (MIC)” value was “+++ (+++ = MIC ≦ 4)” in [1]; “+++ (+++ = MIC ≦ 4)” in assay [2]; “+++ (+++ = MIC ≦ 4)” in assay [3]; “++ (++ = 4 < MIC < 12)” in assay [4]; “+++ (+++ = MIC ≦ 4)” in assay [5]; “++ (++ = 4 < MIC < 12)” in assay [6]. Also, the “Minimum Inhibitory Concentration (MIC)” value in [7] is recorded as “+ (+ = 12 ≦ MIC ≦ 32)”; in assay [8] it was “++ (++ = 4 < MIC < 12)”; in [9] it was “+++ (+++ = MIC ≦ 4)”.

As to `Cn1cc(NC(=O)c2cc(NC(=O)c3cc(NC(=O)c4cc5ccccc5cn4)cn3C)c[nH]2)cc1C(=O)NCCN1CCCCC1` [Ib-86], the “Minimum Inhibitory Concentration (MIC)” value in [1] is listed as “+++ (+++ = MIC ≦ 4)”; in assay [2], “+++ (+++ = MIC ≦ 4)”; in assay [3] it was “+++ (+++ = MIC ≦ 4)”; in assay [4], “+++ (+++ = MIC ≦ 4)”; in [5], “+++ (+++ = MIC ≦ 4)”; in assay [6], “++ (++ = 4 < MIC < 12)”. The “Minimum Inhibitory Concentration (MIC)” value in assay [7], in assay [8] and in assay [9] was “+++ (+++ = MIC ≦ 4)” throughout.

On to `Cn1cc(NC(=O)c2cc(NC(=O)c3cc(NC(=O)c4cc5ccccc5cn4)c[nH]3)cn2C)cc1C(=O)NCCN1CCC(F)(F)CC1` [Ib-78], for which the “Minimum Inhibitory Concentration (MIC)” value in assay [1] is “+++ (+++ = MIC ≦ 4)”; in assay [2], “+++ (+++ = MIC ≦ 4)”; in assay [3], “+++ (+++ = MIC ≦ 4)”; in assay [4], “+++ (+++ = MIC ≦ 4)”; in assay [5], “+++ (+++ = MIC ≦ 4)”; in assay [6], above 32 µg/mL. The “Minimum Inhibitory Concentration (MIC)” value in assay [7], in [8] and in assay [9] was “+++ (+++ = MIC ≦ 4)” throughout.

For the molecule `Cn1cc(NC(=O)c2cc(NC(=O)c3cc(NC(=O)c4cc5ccccc5cn4)c[nH]3)cn2C)cc1C(=O)NCCN1CCOCC1` [Ib-50], the “Minimum Inhibitory Concentration (MIC)” value in [1] was “+++ (+++ = MIC ≦ 4)”; in assay [2], “+++ (+++ = MIC ≦ 4)”; in assay [3], “+++ (+++ = MIC ≦ 4)”; in [4], “+++ (+++ = MIC ≦ 4)”; in assay [5], “+++ (+++ = MIC ≦ 4)”; in assay [6], above 32 µg/mL. The “Minimum Inhibitory Concentration (MIC)” value in [7], in assay [8] and in assay [9] was “+++ (+++ = MIC ≦ 4)” each time.

In the case of `Cn1cc(NC(=O)c2cc(NC(=O)c3cc(NC(=O)c4cc5ccccc5cn4)cn3C)c[nH]2)cc1C(=O)NCCN1CCC(F)(F)CC1` [Ib-88], the “Minimum Inhibitory Concentration (MIC)” value is “+++ (+++ = MIC ≦ 4)” in [1]; “+++ (+++ = MIC ≦ 4)” in assay [2]; “+++ (+++ = MIC ≦ 4)” in assay [3]; “+++ (+++ = MIC ≦ 4)” in [4]; “+++ (+++ = MIC ≦ 4)” in assay [5]; above 32 µg/mL in [6]. Further, the “Minimum Inhibitory Concentration (MIC)” value in [7], in assay [8] and in assay [9] was “+++ (+++ = MIC ≦ 4)” throughout.

Turning to `Cn1cc(NC(=O)c2ccc(NC(=O)c3cc(NC(=O)c4cc5ccccc5cn4)cn3C)cc2)cc1C(=O)NCCN1CCSCC1` [Ic-7], the “Minimum Inhibitory Concentration (MIC)” value is “+++ (+++ = MIC ≦ 4)” in assay [1]; “+++ (+++ = MIC ≦ 4)” in assay [2]; “+++ (+++ = MIC ≦ 4)” in [3]; “+++ (+++ = MIC ≦ 4)” in [4]; “+++ (+++ = MIC ≦ 4)” in assay [5]; above 32 µg/mL in assay [6]. The “Minimum Inhibitory Concentration (MIC)” value in assay [7], in [8] and in assay [9] was “+++ (+++ = MIC ≦ 4)” in each case.

As to `C[C@@H]1CCC[C@H](C)N1CCNC(=O)c1cc(NC(=O)c2ccc(NC(=O)c3cc(NC(=O)c4cc5ccccc5cn4)cn3C)cc2)cn1C` [Ic-6], the “Minimum Inhibitory Concentration (MIC)” value in [1] was “+++ (+++ = MIC ≦ 4)”; in assay [2] it was “+++ (+++ = MIC ≦ 4)”; in assay [3], “+++ (+++ = MIC ≦ 4)”; in assay [5] it was “+++ (+++ = MIC ≦ 4)”; in assay [6], above 32 µg/mL; in [7], “+++ (+++ = MIC ≦ 4)”. Moreover, the “Minimum Inhibitory Concentration (MIC)” value in [9] was “+++ (+++ = MIC ≦ 4)”.

The values above are taken from US6777425B2, “Isoquinoline compounds having antiinfective activity” (Genesoft Pharmaceuticals, Inc., priority 2001, dated 2004).
